Four substances from article PMC3033200 (Angewandte Chemie (International ed. in English), 2010) can be followed below.

“Also recorded” adds a separate entry of the source. Bounds are passed on as bounds.

Data set [1] concerns ΔF508-CFTR. Description: Ussing chamber chloride efflux. It is filed as cell-based, human.
The test system of a further data set is CAL PDZ domain (CALP). Description: NMR HSQC binding-site mapping on 15N-CALP. Conditions: 15N-CALP HSQC.
The subject of data set [2] is ΔF508-CFTR. Put plainly: Ussing chamber chloride efflux, residual ΔISC after CHX. It counts as cell-based, human.
The subject of data set [3] is ΔF508-CFTR. It is filed as cell-based, human. Conditions: surface biotinylation and Western blotting; p = 0.35, n = 14. (In general: In western blotting, separated proteins are transferred to a membrane and probed.)
For the next data set, the system named is CFBE-ΔF cells. Put plainly: peptide uptake by fluorescence microscopy. Conditions: BioPORTER delivery, fluorescence microscopy (Figure S1).

On to AALKEETEEEVQDTRL [CFTR16], for which the “increase in ΔISC” value with ΔF508-CFTR [1] (absence of CHX, relative to the scrambled control (Figure 5)) is “did not significantly increase”.
In the case of ANSRWPTSII [iCAL36], the “effect on ΔF508-CFTR biogenesis/maturation” value in the data set with ΔF508-CFTR [1] (comparison of ΔISC increase in absence (26%) and presence (25%) of CHX) is “does not strongly affect biogenesis”. Moreover, in the data set on CAL PDZ domain (CALP) (800 μM iCAL36, normalized chemical shift perturbation Δ ≥ 0.15), the “mode of binding / binding site on CALP” value was “competitive inhibitor”. Also, the “additional contacts compared to CFTR8” value with CAL PDZ domain (CALP) (compared to the CFTR8 octamer, listed as iCAL36_10) is “extends beyond that of CFTR8; also recorded: makes additional contacts at the distal end of the peptide-binding groove”.
On to F*-ANSRWPTSII [F*-iCAL36], for which, in the data set with ΔF508-CFTR [2] (CHX 2 h, relative to control (F*-SCR) monolayers, p = 0.0005), the “residual ΔISC increase vs control monolayers” value is 25%. Moreover, the “increase in apical ΔF508-CFTR (significance, words)” value in the data set on ΔF508-CFTR [3] is reported as “not statistically significant”. Also, the “peptide uptake” value in the data set on CFBE-ΔF cells was “confirmed”.
Consider “F*-SPTINSAIWR [F*-SCR, reference compound]”, for which the “shift in chloride efflux (ΔISC) compared to untreated cells” value in the data set with ΔF508-CFTR [1] (CFBE-ΔF polarized monolayers, 37 °C, peptide/BioPORTER (500 μM), compared to untreated cells) is at most 4%. Besides, the “residual ΔISC, % of baseline” value in the data set on ΔF508-CFTR [2] (2 h CHX exposure, % of 0 h starting value, n = 9) was 60%. In addition, the “peptide uptake” value with CFBE-ΔF cells is listed as “confirmed”.
